Reference: patent publication US10898469B2, “Imidazolylamide derivative” (Sumitomo Dainippon Pharma Co., Ltd., priority 2016, dated 2021)

Legend:
Assay type in all cases: cell-based, human
HT-29 cells [1] = test: Inhibition test for sphere-forming ability of cancer cells (Test Example 1), HT-29; conditions: concentration for 50% inhibition of cell proliferation, read-out: IC50 (μmol/L) HT-29 (Sphere IC50 value)
Procedure, shortened: (§1)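 Luminescent ATP viability readout (CellTiter-Glo) after 4 days of compound exposure gave the concentration for 50% inhibition of sphere proliferation. Cells grew as spheres at 350-800 cells/well under ultra-low attachment in serum-free medium containing B27, EGF and bFGF, with 0.1% final DMSO.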

FaDu cells [2] = test: Inhibition test for sphere-forming ability of cancer cells in the presence of BSA (Test Example 2), FaDu; conditions: in the presence of 5% BSA, cultured 4 days
Experimental: (§2) Human colorectal cancer-derived HCT-116 cells, human colon-adenocarcinoma-derived HT-29 cells, and human pharyngeal cancer-derived FaDu cells were available from American Type Culture Collection (ATCC). HCT-116 cells and HT-29 cells were cultured at 37° C. under 5% CO2 using the McCoy's 5a medium containing 10% fetal bovine serum (FBS) and 1% penicillin/streptomycin, and FaDu cells were cultured at 37° C. under 5% CO2 using the MEM medium containing 10% FBS, 1% non-essential amino acid, 1% sodium pyruvate, 5% bovine serum albumin (BSA), and 1% penicillin/streptomycin. HCT-116 cells, HT-29 cells, and FaDu cells were seeded in a 384 Well Black Clear Bottom Ultra-Low Attachment Microplate (Corning Cat. No. 3827) in an amount of 350-800 cells/well using the DMEM/F12 medium containing 2% B27 supplement (GIBCO), 20 ng/mL epidermal growth factor (EGF) (peprotech), 10 ng/mL basic fibroblast growth factor (bFGF) (peprotech), 5 μg/mL insulin (Sigma), 5% bovine serum albumin (BSA), and 1% penicillin/streptomycin. Each test compound was added into each well to adjust the final concentration of DMSO to 0.1%, and the cells were cultured for 4 days. The number of viable cells in each well was then measured with CellTiter-Glo® Luminescent Cell Viability Assay (Promega) to calculate the concentration of each test compound for 50% inhibition of cell proliferation (Sphere IC50 value; μmol/L).
(§3) The experiment of Test Example 2 was performed for each compound of each Example.
(§4) The concentration of each test compound for 50% inhibition of cell proliferation (Sphere IC50 value; μmol/L) is shown in the following Table.

HT-29 cells [3] = test: Inhibition test for sphere-forming ability of cancer cells in the presence of BSA (Test Example 2), HT-29; conditions: in the presence of 5% BSA, cultured 4 days
Experimental: as §2, §3, §4

HCT-116 cells [4] = test: Inhibition test for sphere-forming ability of cancer cells (Test Example 1), HCT-116; conditions: for IC50: HCT-116 cells, concentration for 50% inhibition of cell proliferation, read-out: IC50 (μmol/L) HCT-116 (Sphere IC50 value); for inhibitory effect on the sphere-forming ability of cancer cells: Test Example 1, summary in words, cell line not given (HCT-116, HT-29, FaDu tested)
Procedure, shortened: as §1

HCT-116 cells [5] = test: Inhibition test for sphere-forming ability of cancer cells in the presence of BSA (Test Example 2), HCT-116; conditions: for IC50: HCT-116 cells, in the presence of 5% BSA, cultured 4 days; for inhibitory effect on the sphere-forming ability of cancer cells: Test Example 2, in the presence of 5% BSA, summary in words, cell line not given (HCT-116, HT-29, FaDu tested)
Experimental: as §2, §3, §4

FaDu cells [6] = test: Inhibition test for sphere-forming ability of cancer cells (Test Example 1), FaDu; conditions: concentration for 50% inhibition of cell proliferation, read-out: IC50 (μmol/L) FaDu (Sphere IC50 value)
Procedure, shortened: as §1

SMILES | IC50 (HT-29 cells [1]; Homo sapiens) [µmol/L] | IC50 (FaDu cells [2]; Homo sapiens, 96 h) [µM] | IC50 (HT-29 cells [3]; Homo sapiens, 96 h) [µM] | IC50 (HCT-116 cells [4]; Homo sapiens) [µmol/L] | IC50 (HCT-116 cells [5]; Homo sapiens, HCT-116, 96 h) [µM] | IC50 (FaDu cells [6]; Homo sapiens) [µmol/L] | inhibitory effect on the sphere-forming ability of cancer cells (HCT-116 cells [4]) | inhibitory effect on the sphere-forming ability of cancer cells (HCT-116 cells [5]) | IC50 (HT-29 cells [1]) [µmol/L] | IC50 (FaDu cells [2]) [µM] | IC50 (HT-29 cells [3]) [µM] | IC50 (HCT-116 cells [4]) [µmol/L] | IC50 (HCT-116 cells [5]) [µM] | IC50 (FaDu cells [6]) [µmol/L]
CCCC(=O)Nc1ccc(/C=C/C(=O)Nc2cn(Cc3cccc(Cl)c3)cn2)cc1 [Example 6, (E)-N-(4-(3-((1-(3-Chlorobenzyl)-1H-imidazol-4-yl)amino)-3-oxoprop-1-en-1-yl)phenyl)butylamide] | 0.18 | 0.6 | 0.62 | 0.55 | 0.83 | 0.17 | – | – | – | – | – | – | – | –
O=C(/C=C/c1ccc(NC(=O)CO)cc1)Nc1cn(Cc2cccc(Cl)c2)cn1 [Example 7, (E)-N-(1-(3-Chlorobenzyl)-1H-imidazol-4-yl)-3-(4-(2-hydroxyacetylamino)phenyl)acrylamide] | 0.13 | 0.46 | 0.55 | 0.66 | 0.79 | 0.35 | – | – | – | – | – | – | – | –
CC(=O)Nc1ccc(/C=C/C(=O)Nc2cn(Cc3cccc(C(F)(F)F)c3)cn2)cc1 [Example 8, (2E)-3-[4-(acetylamino)phenyl]-N-{1-[3-(trifluoromethyl)benzyl]-1H-imidazol-4-yl}prop-2-enamide] | 0.05 | 0.07 | 0.37 | 0.31 | 0.63 | 0.06 | particularly potent inhibitory effect | particularly potent inhibitory effect | – | – | – | – | – | –
CC(=O)Nc1ccc(/C=C/C(=O)Nc2cn(Cc3cccc(OC(F)(F)F)c3)cn2)cc1 [Example 10, (2E)-3-[4-(acetylamino)phenyl]-N-{1-[3-(trifluoromethoxy)benzyl]-1H-imidazol-4-yl}prop-2-enamide] | 0.07 | 0.28 | 0.55 | 0.63 | 0.83 | 0.07 | – | – | – | – | – | – | – | –
CC(=O)Nc1ccc(/C=C/C(=O)Nc2cn(Cc3cc(F)c(F)c(F)c3)cn2)cc1 [Example 11, (2E)-3-[4-(acetylamino)phenyl]-N-[1-(3,4,5-trifluorobenzyl)-1H-imidazol-4-yl]prop-2-enamide] | 0.08 | 0.06 | 0.07 | < 0.01 | 0.26 | 0.08 | particularly potent inhibitory effect | particularly potent inhibitory effect | – | – | – | – | – | –
O=C(/C=C/c1ccc(NCC(F)F)nc1)Nc1cn(Cc2cccc(Cl)c2)cn1 [Example 14, (E)-N-(1-(3-Chlorobenzyl)-1H-imidazol-4-yl)-3-(6-((2,2-difluoroethyl)amino)pyridin-3-yl)acrylamide] | < 0.01 | 0.06 | 0.06 | 0.06 | 0.36 | 0.04 | particularly potent inhibitory effect | particularly potent inhibitory effect | – | – | – | – | – | –
O=C(/C=C/c1ccc(NCC(F)(F)F)nc1)Nc1cn(Cc2cccc(Cl)c2)cn1 [Example 15] | – | – | – | – | – | – | particularly potent inhibitory effect | particularly potent inhibitory effect | 0.06 | 0.06 | 0.06 | < 0.01 | 0.08 | 0.07
CNc1ccc(/C=C/C(=O)Nc2cn(Cc3cccc(Cl)c3)cn2)cn1 [Example 16] | – | – | – | – | – | – | particularly potent inhibitory effect | particularly potent inhibitory effect | 0.06 | 0.07 | 0.5 | 0.31 | 0.64 | 0.08
O=C(Nc1cccnc1)c1cn(Cc2cccc(Cl)c2)cn1 [Example 264] | – | – | – | – | – | – | – | – | 6.04 | – | 6.27 | 8.49 | > 10 | –
